Earlier results as cited in US6586005B1, “Extended release formulation of etodolac” (Ranbaxy Laboratories Limited, priority 1999, dated 2003).

Difference between solubility at pH 5 to pH 7 (pH 5 versus pH 7): thirty
Aqueous solubility (pH independent below pH 3): very low aqueous solubility
Compound: CCc1cccc2c3c([nH]c12)C(CC)(CC(=O)O)OCC3 (centres unmarked) [Etodolac, 1,8-diethyl-1,3,4,9-tetrahydropyrano [3,4-b] indole-1-acetic acid]
